# Assay results from patent US8158634B2, “Compounds and compositions as inhibitors of cannabinoid receptor 1 activity” (IRM LLC, priority 2004, dated 2012).
# Target: T1, human cannabinoid receptor 2 (CB2) (Homo sapiens, UniProt P34972)
# T1 construct: expressed in transfected cells
# Assay: CB2 in vitro assays on CHO cell membranes ([3H]-CP55940 ligand binding / GTPγS binding), Ki by Cheng-Prusoff
# Settings: membranes of CHO cells stably expressing human CB2; EC50 converted by Cheng-Prusoff
# Method: Homogenized membranes are prepared from CHO cell clones stably expressing a human cannabinoid receptor 1 (CB1) or human cannabinoid receptor 2 (CB2). Cells are grown and scrapped from 15 cm tissue culture plates, and then subsequently centrifuged down. Cells are washed once with cold PBS, and resuspended in <20 ml of Buffer A (20 mM HEPES, pH 7.4, 10 mM EDTA, EDTA-free complete protease inhibitor cocktail [1 tablet/25 ml]). The cell suspension is homogenized on ice, using a Polytron homogenizer at 25000 rpm at three intervals of 15 seconds each. The homogenate is first centrifuged at 2000 rpm on a tabletop low speed centrifuge for 10 minutes. The supernatant, after passing through a cell strainer, is then centrifuged at 50,000×g for 25 minutes at 4° C. The pellet is resuspended into buffer B (15% glycerol, 20 mM HEPES, pH 7.4, 0.1 mM EDTA, EDTA-free complete protease inhibitor cocktail [1 tablet/10 ml]). Protein concentration of the prep is determined using the BCA Protein Assay kit using BSA as standard. The membranes are aliquoted and kept frozen at −80° C.
# [^3H]-CP55940 ligand binding assay: Solutions of test compounds ranging from 100 μM to 0.01 nM are prepared in DMSO. The desired amount of membrane prep is diluted with ice-cold assay buffer (50 mM Tris-HCl, 2.5 mM EDTA, 5 mM MgCl2, 0.05% BSA, pH 7.4) and vortexed well. […]
# T1 sequence (P34972 whole entry): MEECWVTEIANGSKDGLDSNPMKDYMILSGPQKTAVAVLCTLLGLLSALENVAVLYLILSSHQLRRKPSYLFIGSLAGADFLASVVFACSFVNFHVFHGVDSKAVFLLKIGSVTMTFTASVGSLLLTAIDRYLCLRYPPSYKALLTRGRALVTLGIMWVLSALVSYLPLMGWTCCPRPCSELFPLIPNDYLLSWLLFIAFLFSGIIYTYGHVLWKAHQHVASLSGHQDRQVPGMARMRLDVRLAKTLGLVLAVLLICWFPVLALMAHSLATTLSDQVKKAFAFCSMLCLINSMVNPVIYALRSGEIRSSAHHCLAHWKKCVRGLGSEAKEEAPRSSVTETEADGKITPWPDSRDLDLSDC
smiles,measurement,value
"O=c1c2cnn(-c3ccccc3)c2nc(-c2ccccc2F)n1-c1ccc(Br)cc1 [Compound 19, 5-(4-Bromo-phenyl)-6-(2-fluoro-phenyl)-1-phenyl-1,5-dihydro-pyrazolo[3,4-d]pyrimidin-4-one]",Ki,> 5 µM
